{
  "source": "patent US9492471B2",
  "about": "“Methods of treating a disease or disorder associated with Bruton'S Tyrosine Kinase” (Celgene Avilomics Research, Inc., priority 2013, dated 2016)",
  "test_in_all_cases": "HotSpot kinase profiling",
  "assay_type_in_all_cases": "biochemical",
  "key": {"ZAP70": {"target": "T1, ZAP70 (Homo sapiens, UniProt P43403)", "T1 construct": "purchased Reaction Biology Corp", "T1 sequence (P43403 1-619)": "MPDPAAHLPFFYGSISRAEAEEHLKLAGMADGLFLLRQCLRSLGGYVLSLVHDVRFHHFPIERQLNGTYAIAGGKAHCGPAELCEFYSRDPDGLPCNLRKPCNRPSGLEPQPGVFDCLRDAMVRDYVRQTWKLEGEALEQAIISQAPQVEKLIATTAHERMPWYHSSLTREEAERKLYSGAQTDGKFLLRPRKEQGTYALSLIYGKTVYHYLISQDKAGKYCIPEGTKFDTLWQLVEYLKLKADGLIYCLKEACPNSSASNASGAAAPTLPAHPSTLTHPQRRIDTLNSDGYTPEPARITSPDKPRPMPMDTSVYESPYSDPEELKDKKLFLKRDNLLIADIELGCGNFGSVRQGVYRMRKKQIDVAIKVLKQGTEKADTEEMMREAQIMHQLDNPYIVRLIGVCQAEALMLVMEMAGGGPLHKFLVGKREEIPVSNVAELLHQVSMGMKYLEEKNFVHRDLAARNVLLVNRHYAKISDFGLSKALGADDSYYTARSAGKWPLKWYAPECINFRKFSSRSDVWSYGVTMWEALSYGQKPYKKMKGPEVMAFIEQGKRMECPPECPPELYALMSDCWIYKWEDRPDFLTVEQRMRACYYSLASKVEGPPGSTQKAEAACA", "outline": "(§1)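 Radio-isotope P81 filtration format. Substrate + required cofactors in reaction buffer, kinase added, 2 h RT. Stop, wash with 0.1% phosphoric acid, detect. % inhibition vs DMSO; mean of duplicates where repeated.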"}, "CK1d": {"target": "T2, CK1d (Homo sapiens, UniProt P48730)", "T2 construct": "purchased Reaction Biology Corp", "T2 sequence (P48730 whole entry)": "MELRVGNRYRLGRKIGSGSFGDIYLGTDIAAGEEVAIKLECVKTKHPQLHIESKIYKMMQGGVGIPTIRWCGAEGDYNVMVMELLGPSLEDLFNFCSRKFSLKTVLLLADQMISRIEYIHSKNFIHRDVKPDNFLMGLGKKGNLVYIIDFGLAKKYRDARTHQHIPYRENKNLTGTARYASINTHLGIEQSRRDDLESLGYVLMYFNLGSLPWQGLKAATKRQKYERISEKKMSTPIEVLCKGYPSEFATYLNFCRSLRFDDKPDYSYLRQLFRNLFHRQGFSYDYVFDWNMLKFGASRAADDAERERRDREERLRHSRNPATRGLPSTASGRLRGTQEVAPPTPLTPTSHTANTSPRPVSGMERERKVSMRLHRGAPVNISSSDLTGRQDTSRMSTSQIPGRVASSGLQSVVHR", "outline": "as §1"}, "MNK2": {"target": "T3, MNK2 (Homo sapiens, UniProt Q9HBH9)", "T3 construct": "purchased Reaction Biology Corp", "T3 sequence (Q9HBH9 whole entry)": "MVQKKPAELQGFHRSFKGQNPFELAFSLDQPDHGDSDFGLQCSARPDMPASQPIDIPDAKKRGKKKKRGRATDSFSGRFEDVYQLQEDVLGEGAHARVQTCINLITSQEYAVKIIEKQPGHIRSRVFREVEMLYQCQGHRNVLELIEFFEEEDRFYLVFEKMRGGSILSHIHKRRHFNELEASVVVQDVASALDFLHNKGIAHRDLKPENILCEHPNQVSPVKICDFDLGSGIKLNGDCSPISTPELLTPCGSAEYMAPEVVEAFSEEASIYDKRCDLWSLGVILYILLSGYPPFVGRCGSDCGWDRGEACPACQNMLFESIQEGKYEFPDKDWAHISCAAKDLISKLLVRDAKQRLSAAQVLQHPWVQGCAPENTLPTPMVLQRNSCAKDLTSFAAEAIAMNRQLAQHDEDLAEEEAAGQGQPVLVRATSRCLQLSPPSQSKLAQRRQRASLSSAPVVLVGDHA", "outline": "as §1"}, "PLK2": {"target": "T4, PLK2 (Homo sapiens, UniProt Q9NYY3)", "T4 construct": "purchased Reaction Biology Corp", "T4 sequence (Q9NYY3 whole entry)": "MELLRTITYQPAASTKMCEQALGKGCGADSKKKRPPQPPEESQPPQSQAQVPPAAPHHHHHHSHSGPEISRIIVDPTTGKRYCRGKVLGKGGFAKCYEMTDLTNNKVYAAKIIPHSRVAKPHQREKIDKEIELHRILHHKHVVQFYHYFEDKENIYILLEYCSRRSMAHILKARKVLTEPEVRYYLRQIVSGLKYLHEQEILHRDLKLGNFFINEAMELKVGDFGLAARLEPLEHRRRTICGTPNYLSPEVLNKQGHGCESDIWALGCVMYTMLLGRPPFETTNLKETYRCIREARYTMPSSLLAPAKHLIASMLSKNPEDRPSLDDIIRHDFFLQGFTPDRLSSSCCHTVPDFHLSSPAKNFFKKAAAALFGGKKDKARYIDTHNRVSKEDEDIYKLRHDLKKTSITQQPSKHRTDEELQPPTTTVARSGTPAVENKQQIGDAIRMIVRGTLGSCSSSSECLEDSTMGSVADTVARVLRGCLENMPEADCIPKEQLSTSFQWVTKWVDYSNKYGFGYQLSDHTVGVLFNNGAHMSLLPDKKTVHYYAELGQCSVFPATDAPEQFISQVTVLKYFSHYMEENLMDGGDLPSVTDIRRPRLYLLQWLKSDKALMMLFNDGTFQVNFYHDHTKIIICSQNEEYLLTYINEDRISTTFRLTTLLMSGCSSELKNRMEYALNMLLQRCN", "outline": "as §1"}, "TESK1": {"target": "T5, TESK1 (Homo sapiens, UniProt Q15569)", "T5 construct": "purchased Reaction Biology Corp", "T5 sequence (Q15569 whole entry)": "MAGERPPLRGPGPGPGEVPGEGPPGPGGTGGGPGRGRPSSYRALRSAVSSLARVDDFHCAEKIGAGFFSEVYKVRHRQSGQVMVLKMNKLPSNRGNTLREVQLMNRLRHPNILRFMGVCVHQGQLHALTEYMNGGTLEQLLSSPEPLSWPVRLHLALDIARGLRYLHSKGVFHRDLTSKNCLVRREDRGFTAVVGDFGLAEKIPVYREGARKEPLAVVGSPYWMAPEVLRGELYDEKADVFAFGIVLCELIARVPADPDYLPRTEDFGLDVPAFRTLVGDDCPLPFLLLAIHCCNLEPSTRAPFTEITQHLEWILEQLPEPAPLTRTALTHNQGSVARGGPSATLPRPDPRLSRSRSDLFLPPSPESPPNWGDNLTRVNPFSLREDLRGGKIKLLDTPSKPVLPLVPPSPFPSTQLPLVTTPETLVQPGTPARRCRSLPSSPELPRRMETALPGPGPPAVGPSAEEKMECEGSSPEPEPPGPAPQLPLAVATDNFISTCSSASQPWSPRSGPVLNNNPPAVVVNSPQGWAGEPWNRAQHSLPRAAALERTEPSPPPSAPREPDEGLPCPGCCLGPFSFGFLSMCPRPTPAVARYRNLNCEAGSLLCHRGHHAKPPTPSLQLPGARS", "outline": "as §1"}, "P38g": {"target": "T6, P38g (Homo sapiens, UniProt P53778)", "T6 construct": "purchased Reaction Biology Corp", "T6 sequence (P53778 1-367)": "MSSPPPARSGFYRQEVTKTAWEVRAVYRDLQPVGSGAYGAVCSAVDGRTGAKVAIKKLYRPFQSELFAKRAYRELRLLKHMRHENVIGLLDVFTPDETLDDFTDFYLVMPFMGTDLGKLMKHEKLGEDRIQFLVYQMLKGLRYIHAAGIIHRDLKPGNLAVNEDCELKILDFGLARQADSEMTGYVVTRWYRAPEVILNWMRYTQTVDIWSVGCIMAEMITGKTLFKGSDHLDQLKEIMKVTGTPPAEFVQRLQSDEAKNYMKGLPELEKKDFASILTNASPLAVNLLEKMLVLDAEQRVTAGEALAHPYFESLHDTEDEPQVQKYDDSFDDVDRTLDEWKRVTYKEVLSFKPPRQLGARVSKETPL", "outline": "as §1"}, "CDK2/cyclin E": {"target": "T7, CDK2/cyclin E (Homo sapiens, UniProt P24941)", "T7 construct": "purchased Reaction Biology Corp", "outline": "as §1"}, "FLT1/VEGFR1": {"target": "T8, FLT1/VEGFR1 (Homo sapiens, UniProt P17948)", "T8 construct": "purchased Reaction Biology Corp", "T8 sequence (P17948 27-1338)": "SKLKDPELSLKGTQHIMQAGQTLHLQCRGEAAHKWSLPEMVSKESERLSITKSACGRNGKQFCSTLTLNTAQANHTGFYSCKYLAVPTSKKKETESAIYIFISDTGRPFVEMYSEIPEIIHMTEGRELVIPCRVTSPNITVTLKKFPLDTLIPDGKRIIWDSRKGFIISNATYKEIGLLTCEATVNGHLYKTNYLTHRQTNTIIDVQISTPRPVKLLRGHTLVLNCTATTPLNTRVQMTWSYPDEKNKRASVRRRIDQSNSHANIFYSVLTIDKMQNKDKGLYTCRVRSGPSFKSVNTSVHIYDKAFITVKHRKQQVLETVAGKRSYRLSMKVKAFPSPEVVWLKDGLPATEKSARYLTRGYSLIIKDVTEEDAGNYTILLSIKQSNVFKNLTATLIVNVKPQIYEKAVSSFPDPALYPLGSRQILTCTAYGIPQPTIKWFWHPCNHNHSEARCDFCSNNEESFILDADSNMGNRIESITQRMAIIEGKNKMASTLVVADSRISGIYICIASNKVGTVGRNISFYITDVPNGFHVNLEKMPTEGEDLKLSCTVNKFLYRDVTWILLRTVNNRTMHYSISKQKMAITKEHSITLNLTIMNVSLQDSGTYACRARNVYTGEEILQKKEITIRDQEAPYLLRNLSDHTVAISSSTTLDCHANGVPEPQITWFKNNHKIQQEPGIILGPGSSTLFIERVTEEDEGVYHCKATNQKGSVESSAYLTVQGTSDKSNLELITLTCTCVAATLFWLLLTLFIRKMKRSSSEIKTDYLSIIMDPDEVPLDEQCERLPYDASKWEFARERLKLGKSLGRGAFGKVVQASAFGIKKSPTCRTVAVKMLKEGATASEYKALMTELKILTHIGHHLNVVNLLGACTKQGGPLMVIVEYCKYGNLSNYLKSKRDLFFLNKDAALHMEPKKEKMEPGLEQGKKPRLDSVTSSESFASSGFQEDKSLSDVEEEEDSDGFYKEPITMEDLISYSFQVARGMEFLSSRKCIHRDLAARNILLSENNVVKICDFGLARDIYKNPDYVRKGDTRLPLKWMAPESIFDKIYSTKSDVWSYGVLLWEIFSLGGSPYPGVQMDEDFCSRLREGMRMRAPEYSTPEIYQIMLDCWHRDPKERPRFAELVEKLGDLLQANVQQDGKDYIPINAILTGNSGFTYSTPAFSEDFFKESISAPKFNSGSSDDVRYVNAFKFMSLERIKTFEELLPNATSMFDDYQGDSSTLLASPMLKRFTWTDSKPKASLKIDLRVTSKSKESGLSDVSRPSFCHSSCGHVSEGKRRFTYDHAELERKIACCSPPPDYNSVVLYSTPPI", "outline": "as §1"}, "SLK/STK2": {"target": "T9, SLK/STK2 (Homo sapiens, UniProt Q9H2G2)", "T9 construct": "purchased Reaction Biology Corp", "T9 sequence (Q9H2G2 whole entry)": "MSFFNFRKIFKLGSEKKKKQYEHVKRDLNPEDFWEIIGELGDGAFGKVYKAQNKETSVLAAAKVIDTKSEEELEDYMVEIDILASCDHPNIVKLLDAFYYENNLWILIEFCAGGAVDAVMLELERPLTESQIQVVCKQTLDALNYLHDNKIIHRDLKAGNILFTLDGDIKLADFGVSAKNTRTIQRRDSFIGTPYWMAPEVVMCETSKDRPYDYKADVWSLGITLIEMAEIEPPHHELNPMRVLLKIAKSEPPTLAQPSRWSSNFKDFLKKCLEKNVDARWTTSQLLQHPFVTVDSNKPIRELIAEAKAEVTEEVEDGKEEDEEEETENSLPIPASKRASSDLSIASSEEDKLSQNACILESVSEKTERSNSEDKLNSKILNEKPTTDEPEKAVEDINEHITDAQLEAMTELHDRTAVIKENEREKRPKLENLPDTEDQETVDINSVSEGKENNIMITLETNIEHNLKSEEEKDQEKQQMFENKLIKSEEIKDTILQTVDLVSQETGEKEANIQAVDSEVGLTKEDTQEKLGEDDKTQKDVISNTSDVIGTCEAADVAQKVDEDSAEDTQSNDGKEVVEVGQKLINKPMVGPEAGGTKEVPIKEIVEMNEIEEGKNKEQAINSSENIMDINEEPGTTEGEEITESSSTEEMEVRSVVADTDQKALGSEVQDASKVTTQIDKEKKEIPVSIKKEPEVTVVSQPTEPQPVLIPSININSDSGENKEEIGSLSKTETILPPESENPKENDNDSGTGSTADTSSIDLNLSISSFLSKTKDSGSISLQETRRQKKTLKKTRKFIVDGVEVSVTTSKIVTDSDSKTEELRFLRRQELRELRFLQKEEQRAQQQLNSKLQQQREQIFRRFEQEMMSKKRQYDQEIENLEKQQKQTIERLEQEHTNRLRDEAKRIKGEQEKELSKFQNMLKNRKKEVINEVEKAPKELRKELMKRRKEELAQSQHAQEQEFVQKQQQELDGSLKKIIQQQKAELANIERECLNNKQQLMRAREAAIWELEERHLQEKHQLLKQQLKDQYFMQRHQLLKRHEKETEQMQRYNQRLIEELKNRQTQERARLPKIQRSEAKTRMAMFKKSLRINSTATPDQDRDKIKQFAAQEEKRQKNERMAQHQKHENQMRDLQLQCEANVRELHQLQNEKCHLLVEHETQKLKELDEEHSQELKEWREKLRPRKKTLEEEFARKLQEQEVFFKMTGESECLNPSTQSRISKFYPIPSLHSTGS", "outline": "as §1"}, "[1]": {"conditions": "read-out: % Enzyme Activity (relative to DMSO controls) Run 1"}, "[2]": {"conditions": "read-out: % Enzyme Activity (relative to DMSO controls) Run 2"}},
  "note": "Like-named read-outs stand apart in the source and are kept apart here.",
  "data": [
    {"compound": "C=CC(=O)Nc1cccc(Nc2nc(Nc3ccc(OCCOC)c(F)c3)ncc2F)c1", "note": "[Compound 2]", "values": [
      {"measurement": "inhibition at 3 µM", "setting": "ZAP70", "result": -9.21, "unit": "%"},
      {"measurement": "remaining activity at 3 µM", "setting": "ZAP70; [1]", "result": 110, "unit": "%"},
      {"measurement": "remaining activity at 3 µM", "setting": "ZAP70; [2]", "result": 108, "unit": "%"},
      {"measurement": "inhibition at 3 µM", "setting": "CK1d", "result": -0.03, "unit": "%"},
      {"measurement": "remaining activity at 3 µM", "setting": "CK1d; [1]", "result": 99.9, "unit": "%"},
      {"measurement": "remaining activity at 3 µM", "setting": "CK1d; [2]", "result": 100, "unit": "%"},
      {"measurement": "inhibition at 3 µM", "setting": "MNK2", "result": 16.9, "unit": "%"},
      {"measurement": "remaining activity at 3 µM", "setting": "MNK2; [1]", "result": 83, "unit": "%"},
      {"measurement": "remaining activity at 3 µM", "setting": "MNK2; [2]", "result": 83.2, "unit": "%"},
      {"measurement": "inhibition at 3 µM", "setting": "PLK2", "result": 13.3, "unit": "%"},
      {"measurement": "remaining activity at 3 µM", "setting": "PLK2; [1]", "result": 86.6, "unit": "%"},
      {"measurement": "remaining activity at 3 µM", "setting": "PLK2; [2]", "result": 86.7, "unit": "%"},
      {"measurement": "inhibition at 3 µM", "setting": "TESK1", "result": 2.13, "unit": "%"},
      {"measurement": "remaining activity at 3 µM", "setting": "TESK1; [1]", "result": 97.2, "unit": "%"},
      {"measurement": "remaining activity at 3 µM", "setting": "TESK1; [2]", "result": 98.5, "unit": "%"},
      {"measurement": "inhibition at 3 µM", "setting": "P38g", "result": -5.53, "unit": "%"},
      {"measurement": "remaining activity at 3 µM", "setting": "P38g; [1]", "result": 105, "unit": "%"},
      {"measurement": "remaining activity at 3 µM", "setting": "P38g; [2]", "result": 106, "unit": "%"},
      {"measurement": "inhibition at 3 µM", "setting": "CDK2/cyclin E", "result": 10, "unit": "%"},
      {"measurement": "remaining activity at 3 µM", "setting": "CDK2/cyclin E; [1]", "result": 87.9, "unit": "%"},
      {"measurement": "remaining activity at 3 µM", "setting": "CDK2/cyclin E; [2]", "result": 92, "unit": "%"},
      {"measurement": "inhibition at 3 µM", "setting": "FLT1/VEGFR1", "result": 18.6, "unit": "%"},
      {"measurement": "remaining activity at 3 µM", "setting": "FLT1/VEGFR1; [1]", "result": 83.6, "unit": "%"},
      {"measurement": "remaining activity at 3 µM", "setting": "FLT1/VEGFR1; [2]", "result": 79.2, "unit": "%"},
      {"measurement": "inhibition at 3 µM", "setting": "SLK/STK2", "result": 24.9, "unit": "%"},
      {"measurement": "remaining activity at 3 µM", "setting": "SLK/STK2; [1]", "result": 74.9, "unit": "%"},
      {"measurement": "remaining activity at 3 µM", "setting": "SLK/STK2; [2]", "result": 75.3, "unit": "%"}
    ]}
  ]
}
